The target in the assay is human NAMPT (Homo sapiens (Human), UniProt P43490). In words: NMN fluorescence biochemical assay (human recombinant NAMPT enzyme assay). The method in brief:
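Activation of recombinant human NAMPT (6 nM) was tested with 2.5 mM ATP, 20 μM PRPP and 150 μM nicotinamide in 50 mM HEPES pH 7.2 for 60 min at ambient temperature. NMN was derivatized with acetophenone/KOH/formic acid and read by fluorescence (355/460 nm) after 40 min.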

For orientation: EC50 means the concentration giving half of the maximal effect.

Sequence of human NAMPT (P43490 whole entry): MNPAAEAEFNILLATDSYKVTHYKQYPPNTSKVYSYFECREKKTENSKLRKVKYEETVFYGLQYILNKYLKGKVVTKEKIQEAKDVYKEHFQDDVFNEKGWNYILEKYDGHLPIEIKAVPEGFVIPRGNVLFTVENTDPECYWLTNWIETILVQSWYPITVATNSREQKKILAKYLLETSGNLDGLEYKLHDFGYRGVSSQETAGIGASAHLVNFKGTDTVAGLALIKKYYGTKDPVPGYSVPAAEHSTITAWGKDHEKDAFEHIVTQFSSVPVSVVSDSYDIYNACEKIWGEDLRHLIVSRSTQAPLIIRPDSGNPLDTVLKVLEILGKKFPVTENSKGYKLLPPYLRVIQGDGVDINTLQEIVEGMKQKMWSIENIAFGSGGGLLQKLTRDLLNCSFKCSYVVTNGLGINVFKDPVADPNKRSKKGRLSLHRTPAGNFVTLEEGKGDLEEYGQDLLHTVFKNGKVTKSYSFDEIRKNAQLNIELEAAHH

In the case of `CN(C)C(=O)N1CCC(c2ccc(NC(=O)OCc3cnco3)cc2F)CC1` [Compound 411, oxazol-5-ylmethyl (4-(1-(dimethylcarbamoyl)piperidin-4-yl)-3-fluorophenyl)carbamate], the “AC1.4 Human” value is 0.04 µM and the EC50 is 19 µM.
The like results for `COc1cnn(C)c1C(=O)NCc1ccc(NC(=O)OCc2ccc(Cl)cc2)cc1` [Compound 135, (4-chlorophenyl)methyl N-(4-{[(4-methoxy-2-methylpyrazol-3-yl)formamido]methyl}phenyl)carbamate] were, in that order, 1.07 µM and 3.28 µM.
For `Cc1cc(C(=O)N(C)Cc2ccc(NC(=O)OCc3ccc(Cl)cc3)cc2)on1` [Compound 160, (4-chlorophenyl)methyl N-(4-{[N-methyl-1-(3-methyl-1,2-oxazol-5-yl)formamido]methyl}phenyl)carbamate], the “AC1.4 Human” value is 1.33 µM and the EC50 came out at 5.32 µM.
The like results for `CC(C)C(=O)N1CCC(c2ccc(NC(=O)OCc3cnco3)cc2F)CC1` [Compound 414, oxazol-5-ylmethyl (3-fluoro-4-(1-isobutyrylpiperidin-4-yl)phenyl)carbamate] were, in that order, 0.03 µM and 26.2 µM.
The corresponding values for `CS(=O)(=O)N1CCC2(CC(c3ccc(NC(=O)OCc4cnco4)cc3F)C2)C1` (single isomer, unassigned) [Compound 359] are 0.104 µM and 3.5 µM.
On to `O=C(Nc1ccc(CN2CC3CC3C2=O)cc1)OCc1ccc(Cl)cc1` (stereo not drawn) [Compound 180, (4-chlorophenyl)methyl N-[4-({2-oxo-3-azabicyclo[3.1.0]hexan-3-yl}methyl)phenyl]carbamate], for which the “AC1.4 Human” value came out at 1.52 µM and the EC50 stood at 15.1 µM.
For `Cc1coc(C(=O)NCc2ccc(NC(=O)OCc3ccc(Cl)cc3)cc2)n1` [Compound 276, (4-chlorophenyl)methyl N-(4-{[(4-methyl-1,3-oxazol-2-yl)formamido]methyl}phenyl)carbamate], the “AC1.4 Human” value came out at 3.32 µM and the EC50 amounted to 18.3 µM.
The like results for `CC(C)C(=O)N1CC2(CC(Cc3ccc(NC(=O)OCc4cnco4)cc3F)C2)C1` [Compound 403, oxazol-5-ylmethyl (3-fluoro-4-((2-isobutyryl-2-azaspiro[3.3]heptan-6-yl)methyl)phenyl)carbamate] were, in that order, 0.15 µM and 7.47 µM.
`COc1ccc(COC(=O)Nc2ccc([C@H]3CNC(=O)CN3C)cc2)cc1` [Compound 263, 4-methoxybenzyl (S)-(4-(1-methyl-5-oxopiperazin-2-yl)phenyl)carbamate]: the “AC1.4 Human” value came to 2.92 µM and the EC50 amounted to 39.1 µM.
Take `C[C@H]1CCCN(C(=O)Cc2ccc(NC(=O)OCc3ccc(Cl)cc3)cc2)C1` [Compound 261, (4-chlorophenyl)methyl N-(4-{2-[(3S)-3-methylpiperidin-1-yl]-2-oxoethyl}phenyl)carbamate]: the “AC1.4 Human” value turned out to be 2.83 µM and the half-maximal effective concentration (EC50) is 9.46 µM.
As to `Cc1ccc(Cc2ccc(NC(=O)OCc3ccc(F)cc3)cc2)cn1` [Compound 331, 4-fluorobenzyl (4-((6-methylpyridin-3-yl)methyl)phenyl)carbamate], the “AC1.4 Human” value was found to be 8.67 µM and the EC50 was 11.9 µM.
Turning to `COCCn1nccc1C(=O)NCc1ccc(NC(=O)OCc2ccc(Cl)cc2)cc1` [Compound 166, (4-chlorophenyl)methyl N-[4-({[2-(2-methoxyethyl)pyrazol-3-yl]formamido}methyl)phenyl]carbamate], the “AC1.4 Human” value turned out to be 1.38 µM and the concentration for a half-maximal effect (EC50) stood at 5.87 µM.
The like results for `O=C1CN(C(=O)C(F)(F)c2ccc(NC(=O)OCc3ccc(Cl)cc3)cc2)CCN1` [Compound 312, (4-chlorophenyl)methyl N-{4-[1,1-difluoro-2-oxo-2-(3-oxopiperazin-1-yl)ethyl]phenyl}carbamate] were, in that order, 5.55 µM and 39.1 µM.
As for `Cc1cc(C)c(C(=O)NCc2ccc(NC(=O)OCc3ccc(Cl)cc3)cc2)cn1` [Compound 165], the “AC1.4 Human” value is 1.38 µM and the EC50 amounted to 7.53 µM.
The corresponding values for `C[C@H](NC(=O)c1c(F)cncc1F)c1ccc(NC(=O)OCc2ccc(Cl)cc2)cc1` [Compound 57, (4-chlorophenyl)methyl N-{4-[(1S)-1-[(3,5-difluoropyridin-4-yl)formamido]ethyl]phenyl}carbamate] are 0.54 µM and 1.29 µM.
In the case of `COc1ccc(COC(=O)Nc2ccc(COC3CCN(C4COC4)CC3)cc2)cc1` [Compound 291, 4-methoxybenzyl (4-(((1-(oxetan-3-yl)piperidin-4-yl)oxy)methyl)phenyl)carbamate], the “AC1.4 Human” value stood at 3.97 µM and the concentration giving a half-maximal response (EC50) came to 38.2 µM.
The like results for `CO[C@H]1CCCN(C(=O)Cc2ccc(NC(=O)OCc3ccc(Cl)cc3)cc2)C1` [Compound 161, 4-chlorobenzyl (S)-(4-(2-(3-methoxypiperidin-1-yl)-2-oxoethyl)phenyl)carbamate] were, in that order, 1.33 µM and 10.1 µM.
In the case of `O=C(Nc1ccc(CC2CC3(C2)CN(C2COC2)C3)c(F)c1)OCc1cnco1` [Compound 397, oxazol-5-ylmethyl (3-fluoro-4-((2-(oxetan-3-yl)-2-azaspiro[3.3]heptan-6-yl)methyl)phenyl)carbamate], the “AC1.4 Human” value was found to be 0.98 µM and the EC50 was 42.6 µM.
The like results for `C[C@H](NC(=O)C1CCC(F)(F)C1)c1ccc(NC(=O)OCc2cnco2)cc1` (stereo partly drawn) [Compound 97, 1,3-oxazol-5-ylmethyl N-{4-[(1S)-1-[(3,3-difluorocyclopentyl)formamido]ethyl]phenyl}carbamate] were, in that order, 0.76 µM and 23.6 µM.
`CC(=O)N1C2CCC1CC(Cc1ccc(NC(=O)OCc3cnco3)cc1)C2` (stereo not drawn) [Compound 410, oxazol-5-ylmethyl (4-((8-acetyl-8-azabicyclo[3.2.1]octan-3-yl)methyl)phenyl)carbamate]: the “AC1.4 Human” value is 0.13 µM and the EC50 came out at 4.19 µM.
Regarding `CN(Cc1ccc(NC(=O)OCc2ccc(Cl)cc2)cc1)C(=O)c1cn[nH]c1` [Compound 41, (4-chlorophenyl)methyl N-{4-[(N-methyl-1-1H-pyrazol-4-ylformamido)methyl]phenyl}carbamate], the “AC1.4 Human” value turned out to be 0.44 µM and the EC50 is 3.48 µM.
The corresponding values for `Cn1cc(COC(=O)Nc2ccc(Cc3ccncc3)cc2)cn1` [Compound 355, (1-methyl-1H-pyrazol-4-yl)methyl (4-(pyridin-4-ylmethyl)phenyl)carbamate] are 25.86 µM and 4.96 µM.
The corresponding values for `O=C(Nc1ccc(CN2CCC[C@@H]2c2cccnc2)cc1)OCc1cnco1` [Compound 6, oxazol-5-ylmethyl (R)-(4-((2-(pyridin-3-yl)pyrrolidin-1-yl)methyl)phenyl)carbamate] are 0.07 µM and 0.55 µM.
As to `CN(C)S(=O)(=O)N1CC2CC(C1)C2Cc1ccc(NC(=O)OCc2cnco2)cc1` (stereo not drawn) [Compound 433, oxazol-5-ylmethyl (4-((3-(N,N-dimethylsulfamoyl)-3-azabicyclo[3.1.1]heptan-6-yl)methyl)phenyl)carbamate], the “AC1.4 Human” value was 0.21 µM and the EC50 stood at 7.43 µM.
The corresponding values for `CC(=O)N1CCC(Cc2ccc(NC(=O)OCc3ccncc3)cc2)CC1` [Compound 115, pyridin-4-ylmethyl (4-((1-acetylpiperidin-4-yl)methyl)phenyl)carbamate] are 0.94 µM and 3.13 µM.
On to `CN(C)C(=O)N1CC2(CC(Cc3ccc(NC(=O)OCc4cnco4)cc3F)C2)C1` [Compound 398, oxazol-5-ylmethyl (4-((2-(dimethylcarbamoyl)-2-azaspiro[3.3]heptan-6-yl)methyl)-3-fluorophenyl)carbamate], for which the “AC1.4 Human” value amounted to 0.08 µM and the EC50 turned out to be 3.29 µM.
Consider `CN1CC(=O)NC[C@@H]1c1ccc(NC(=O)OCc2ccc(Cl)cc2)cc1` [Compound 54, 4-chlorobenzyl (S)-(4-(1-methyl-5-oxopiperazin-2-yl)phenyl)carbamate], for which the “AC1.4 Human” value came to 0.51 µM and the EC50 was 8.45 µM.
The like results for `COc1ccc(C(=O)N[C@@H](C)c2ccc(NC(=O)OCc3ccc(Cl)cc3)cc2)cn1` [Compound 100, (4-chlorophenyl)methyl N-{4-[(1S)-1-[(6-methoxypyridin-3-yl)formamido]ethyl]phenyl}carbamate] were, in that order, 0.81 µM and 1.22 µM.
The corresponding values for `Cc1ccc(Cc2ccc(NC(=O)OCc3ccc(Cl)cc3)cc2)cn1` [Compound 292, 4-chlorobenzyl (4-((6-methylpyridin-3-yl)methyl)phenyl)carbamate] are 4.12 µM and 20 µM.
Take `C[C@@H]1CCCN(C(=O)Cc2ccc(NC(=O)OCc3ccc(Cl)cc3)cc2)C1` [Compound 256, (4-chlorophenyl)methyl N-(4-{2-[(3R)-3-methylpiperidin-1-yl]-2-oxoethyl}phenyl)carbamate]: the “AC1.4 Human” value was 2.69 µM and the EC50 was 10.5 µM.
The corresponding values for `CC(O)(c1ccncc1)c1ccc(NC(=O)OCc2cncs2)cc1` (stereo not drawn) [Compound 329, thiazol-5-ylmethyl (4-(1-hydroxy-1-(pyridin-4-yl)ethyl)phenyl)carbamate] are 8.65 µM and 33.6 µM.
Consider `COC(=O)N1CC2CCC(C1)C2Cc1ccc(NC(=O)OCc2cnco2)cc1` (stereo not drawn) [Compound 421, methyl 8-(4-(((oxazol-5-ylmethoxy)carbonyl)amino)benzyl)-3-azabicyclo[3.2.1]octane-3-carboxylate], for which the “AC1.4 Human” value was 0.13 µM and the EC50 turned out to be 2.33 µM.
The like results for `O=C(Nc1ccc(CN2CCN(C3COC3)CC2)cc1)OCc1ccc(Cl)cc1` [Compound 223, (4-chlorophenyl)methyl N-(4-{[4-(oxetan-3-yl)piperazin-1-yl]methyl}phenyl)carbamate] were, in that order, 2.05 µM and 17.6 µM.
